# Data as given in US20070004674A1, “Remedy for diseases associated with immunoglobulin gene translocation” (Kyowa Hakko Kogyo Co. Ltd., priority 2003, published 2007).
# Legend:
# [1] = test system: multiple myeloma cells; details: mice to which multiple myeloma cells were transplanted; Blood, 100, 392 (2002); cited from earlier work
# [2] = test system: FGFR3; assay: Western blot: intracellular disappearance of FGFR3 in KMS-11 cells; assay type: cell-based, human; details: KF58333 4.0, 20 and 100 nmol/l, 40 hours, FIG. 1
# Method: (§1) KMS-11 cells derived from human multiple myeloma [In Vitro Cell. Dev. Biol., 25, 723 (1989)], which were diluted to 10,000 cells/ml with RPMI 1640 medium containing 10% fetal bovine serum (hereinafter referred to as “culturing medium”), were put in plastic culture flasks (125 cm^2, Nunc) in 30 ml portions. KMS-11 cells are reported to be the cells in which a large amount of FGFR3 is expressed as a result of translocation between immunoglobulin gene on 14q32 and FGFR3 gene on 4p16.3 [Blood, 90, 4062 (1997)]. […]
# (§2) To the thus recovered cells was added a cooled lysis buffer (50 mmol/l HEPES NaOH, pH 7.4, 250 mmol/l sodium chloride, 1 mmol/l ethylenediamine tetraacetate, 1% Nonidet P-40, 1 mmol/l dithiothreitol, 1 mmol/l phenylmethylsulfonyl fluoride, 5 μg/ml leupeptin), and the mixture was allowed to stand at 4° C. for 30 minutes for cytolysis, followed by centrifugation at 20000 G for 10 minutes. The concentration of proteins in the supernatant thus obtained was measured, and the samples were adjusted so that the amount of proteins per each lane was the same. […]
# (§3) The separated protein samples were each transferred to a polyvinylidene difluoride membrane (Millipore). […] The band of each protein was detected by FluorImager (Molecular Dynamics) after reaction with ECF reagent (Molecular Dynamics).
# [3] = test system: Raf-1; assay: Western blot: Raf-1 level in KMS-11 cells; assay type: cell-based, human; details: KF58333 4.0, 20 and 100 nmol/l, 40 hours, FIG. 1
# Method: as §1, §2, §3
# [4] = test system: Cdk6; assay: Western blot: Cdk6 level in KMS-11 cells; assay type: cell-based, human; details: KF58333 4.0, 20 and 100 nmol/l, 40 hours, FIG. 1
# Method: as §1, §2, §3
# [5] = test system: Erk2; assay: Western blot: Erk2 level in KMS-11 cells; assay type: cell-based, human; details: KF58333 4.0, 20 and 100 nmol/l, 40 hours, FIG. 1, Erk2 is not an Hsp90 client protein
# Method: as §1, §2, §3
# [6] = test system: KMS-11 cells; assay: Growth inhibition of KMS-11 cells (XTT); assay type: cell-based; details: Homo sapiens, 72 hours, calculated from the graph of FIG. 2, read-out: concentration to inhibit cell growth by 50% (GI50 value)
# Method: KMS-11 cells diluted to 2×10^5 cells/ml with the culturing medium were pipetted into a 96-well microplate (Nunc) in an amount of 50 μl ([…]) per well. To each well was added 50 μl of a solution prepared by diluting a 10 mmol/l solution of KF58333 in DMSO to 600 nmol/l with the culturing medium and further serially diluting the resulting solution threefold with the culturing medium so as to make the final concentrations of KF58333 of 300, 100, 33.3, 11.1, 3.70 and 1.23 nmol/l, respectively. […] Thereafter, incubation was carried out in a 5% CO2 incubator at 37° C. for 72 hours, and the number of living cells was measured in the following manner. […] Then, the absorbance at 450 nm and 655 nm was measured using a microplate spectrophotometer (Model 550, BIO-RAD). A value (difference in absorbance) was calculated by subtracting the absorbance at 655 nm from that at 450 nm for each well. Since the number of living cells is proportional to the difference in absorbance, the rate (%) of the value of difference in absorbance obtained for cells to which various concentrations of KF58333 were added to that obtained for control cells to which KF58333 was not added when the latter value was designated as 100% was calculated as the rate of the number of living cells to that of control, and the cell growth inhibitory activity of KF58333 was measured.
# [7] = test system: KMS-11 cells; assay: In vivo antitumor effect in KMS-11 cell-transplanted mice; details: KMS-11 subcutaneous tumor in scid mice, 25 mg/kg intravenously once a day for 5 consecutive days, measured up to day 24, FIG. 3
# Method: In vivo antitumor effect of a compound having an inhibitory action on Hsp90 was examined using a human tumor model prepared by transplanting KMS-11 cells to immunodeficient mice as a model of a disease associated with immunoglobulin gene translocations.
# KMS-11 cells were cultured in a 5% CO2 incubator at 37° C. using the culturing medium for propagation. One day before transplantation, 0.3 mg/mouse of anti-asialo GM1 antibody was intraperitoneally administered to 10 […] Fox C.B-17/Icr-scidJcl mice (CLEA JAPAN). One day after the administration of the antibody, the cultured KMS-11 cells (1×10^7 cells/mouse) were subcutaneously transplanted to the mice. Fourteen days after the transplantation, the longer diameter and shorter diameter of the tumor subcutaneously grown were measured with slide calipers, and the tumor volume was calculated according to the following equation: Tumor volume V(mm^3)={longer diameter (mm)×[shorter diameter(mm)]^2}/2
# At the same time, the body weight of each mouse was measured, and the mice were divided into two groups of 5 mice each so that the tumor volume and the body weight are randomized. The day was defined as day 0 of the administration test, and drug administration was started in the following manner. […]
structure (smiles),measurement,setting,value
C=CCNC1=C2C[C@@H](C)C[C@H](OC)[C@H](O)[C@@H](C)/C=C(\C)[C@H](OC(N)=O)[C@@H](OC)/C=C\C=C(/C)C(=O)NC(=CC1=O)C2=O [17-allylamino-17-demethoxy geldanamycin],survival time of mice,[1],extended survival time
CC1CC2OC2\C=C/C=C/C(=N\OCCN2CCCC2=O)Cc2c(Cl)c(O)cc(O)c2C(=O)O1 (stereo not shown) [KF58333],intracellular amount of FGFR3 (Western blot),[2],disappeared
same,intracellular amount of Raf-1 (Western blot),[3],disappeared
same,intracellular amount of Cdk6 (Western blot),[4],disappeared
same,intracellular amount of Erk2 (Western blot),[5],no change
same,GI50,[6],0.0198 µM
same,tumor growth (volume ratio V/V0),[7],apparent suppression of tumor growth
